According to US20250186450A1, “COMBINATION THERAPY COMPRISING DGK INHIBITORS and PD-1/PD-L1 INHIBITORS” (Incyte Corporation, priority 2023, published 2025):
Entries after “also recorded” stand apart in the source; their conditions may differ.

What was measured:
DGKζ = DGKζ (Homo sapiens (Human), UniProt Q13574); assay: In vitro DGKζ inhibition assay (ADP-Glo); type: biochemical; details: 0.4 nM DGKζ, 30 μM ATP, 20 μM DLG
Procedure: (§1) The DGKα and DGKζ biochemical reactions were performed using His-tagged human recombinant enzymes (Signal Chem, DGKα, #D21-10BH; DGKζ, #D30-10H)) and DLG (Dilauroyl-sn-glycerol) lipid substrate (Signal Chem, #D430-59). ADP-Glo assay was performed using ADP-Glo™ kinase Assay kit (Promega, #V9104). The reactions were carried out in assay buffer containing 40 mM Tris, pH 7.5, 0.1% CHAPS, 0.1% Prionex, 40 mM NaCl, 5 mM MgCl2, 1 mM CaCl2, and 1 mM DTT. DGKα reactions contained 0.1 nM DGKα, 50 μM ATP, and 20 μM DLG. And DGKζ reactions contained 0.4 nM DGKζ, 30 μM ATP, and 20 μM DLG.
(§2) For compound inhibition studies, 40 nL test compound in DMSO was added to wells of white polystyrene plates in 384-well (Greiner, #784075) or 1536-well format (Greiner, #782075). Compounds were added with top concentration of 2 mM with 11 point, 3-fold dilution series. Enzyme solution (contains 2×DGK enzyme concentration in 1× assay buffer) was added to the plate in 2 μL/well volume, followed by 2 μL/well of substrate solution (contains 2× concentration of ATP and DLG substrate in 1× assay buffer). Plates were then centrifuged for 1 min at 1200 RPM and sealed or lidded. For 4 μL reaction volume, test compounds were therefore diluted 100× to final top concentration of 20 μM. After 90 minute incubation, reactions were quenched by addition of 2 μL/well Promega ADP-Glo Reagent, followed by centrifugation and lidding. After 60 min incubation, 2 μL/well Promega Kinase Detection Reagent was added, plates centrifuged, and incubated for 30 min. Plates were then read using Luminescence method on BMG PHERAstar FSX plate reader. Percent inhibition was calculated and IC50s were determined using 4-parameter fit in Genedata Screener. Labcyte Echo acoustic dispenser was used for compound addition, and Formulatrix Tempest liquid handler was used for all reagent dispenses.

DGKα = DGKα (Homo sapiens (Human), UniProt P23743); assay: In vitro DGKα inhibition assay (ADP-Glo); type: biochemical; details: 0.1 nM DGKα, 50 μM ATP, 20 μM DLG
DGKα, sequence (P23743 whole entry): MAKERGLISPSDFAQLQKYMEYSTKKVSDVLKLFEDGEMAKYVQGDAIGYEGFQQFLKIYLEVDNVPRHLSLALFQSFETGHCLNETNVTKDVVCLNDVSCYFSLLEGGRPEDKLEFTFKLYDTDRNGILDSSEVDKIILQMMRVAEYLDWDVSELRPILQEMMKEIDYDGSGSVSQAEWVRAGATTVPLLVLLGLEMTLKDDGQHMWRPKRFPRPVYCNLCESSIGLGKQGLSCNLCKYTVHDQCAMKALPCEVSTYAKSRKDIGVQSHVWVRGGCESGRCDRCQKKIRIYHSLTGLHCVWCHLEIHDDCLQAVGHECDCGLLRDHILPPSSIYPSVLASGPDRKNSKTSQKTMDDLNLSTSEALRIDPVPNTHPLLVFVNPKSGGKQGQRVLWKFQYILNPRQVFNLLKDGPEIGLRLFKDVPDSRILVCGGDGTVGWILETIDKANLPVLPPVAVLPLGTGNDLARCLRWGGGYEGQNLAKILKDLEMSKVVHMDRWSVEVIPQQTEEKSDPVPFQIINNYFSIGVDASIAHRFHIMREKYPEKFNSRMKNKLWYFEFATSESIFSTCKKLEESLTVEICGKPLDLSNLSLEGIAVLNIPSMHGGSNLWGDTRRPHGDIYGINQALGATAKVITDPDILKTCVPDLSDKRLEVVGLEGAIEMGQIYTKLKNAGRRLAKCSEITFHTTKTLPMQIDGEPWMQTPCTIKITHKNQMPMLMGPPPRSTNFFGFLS
Procedure: as §1, §2

[1] = tested on: MC38 syngeneic tumor model; assay: MC38 syngeneic tumor model, DGK inhibitor plus anti-PD-1 (RMP1-14); type: in vivo, C57Bl/6 mice; details: FIGS. 9A-9B, listed as Compound 3
Procedure: The in vivo effect of combining Compound 1 plus anti-PD-1 (RMP1-14, Bio X Cell) was assessed in the MC38 (CRL-1642, ATCC, Manassas, VA) syngeneic tumor model (see FIG. 3) in 6 to 8 weeks old C57Bl/6 mice (Jackson laboratories). Compound 1 was suspended in 5% N,N-dimethylacetamide (DMAC)+50 mM Citrate buffer in 0.5% methyl cellulose for oral administration and RMP1-14 was suspended in saline for intraperitoneal administration. Briefly, the left flank of the mice was shaved the day prior to subcutaneous inoculation with 2×10^6 MC38 cells suspended in PBS. On day 7, tumor dimensions were measured by Vernier calipers, and volume estimated by the formula Volume=[L (long dimension)×W^2 (short dimension)]/2. Mice were randomized into 6 groups of 10 mice of approximate mean volume (˜160 mm^3). Tumors were measured 3 times per week for the duration of the study. Starting day 7, mice were dosed with (i) vehicle; (ii) 250 μg/mouse of RMP1-14; (iii) 10 mg/kg of Compound 1; (iv) 1 mg/kg of Compound 1; (v) 10 mg/kg of Compound 1 and 250 μg/mouse of RMP1-14; or (vi) 1 mg/kg of Compound 1 and 250 μg/mouse of RMP1-14. Compound 1 was administered orally once daily (QD) for 12 days, while RMP1-14 was dosed every 5 days (for a total of 3 doses).
The in vivo effect of combining Compound 2 plus anti-PD-1 (RMP1-14, Bio X Cell) was assessed in the MC38 (CRL-1642, ATCC, Manassas, VA) syngeneic tumor model in 6 to 8 weeks old C57Bl/6 mice (Jackson laboratories). Compound 2 was suspended in 5% N,N-dimethylacetamide (DMAC)+50 mM Citrate buffer in 0.5% methyl cellulose for oral administration and RMP1-14 was suspended in saline for intraperitoneal administration. Briefly, the left flank of the mice was shaved the day prior to subcutaneous inoculation with 2×10^6 MC38 cells suspended in PBS. On day 7, tumor dimensions were measured by Vernier calipers, and volume estimated by the formula Volume=[L (long dimension)×W^2 (short dimension)]/2. Mice were randomized into 6 groups of 10 mice of approximate mean volume (˜130 mm^3). Tumors were measured 3 times per week for the duration of the study. Starting day 7, mice were dosed with (i) vehicle; (ii) 250 μg/mouse of RMP1-14 (Anti-PD-1); (iii) 0.5 mg/kg of Compound 2 QD; (iv) 0.5 mg/kg of Compound 2 […] and 250 μg/mouse of RMP1-14; (v) 0.5 mg/kg of Compound 2 Q2D; (vi) 0.5 mg/kg of Compound 2 […] and 250 μg/mouse of RMP1-14; (vii) 1.5 mg/kg of Compound 2 QD; (viii) 1.5 mg/kg of Compound 2 QD and 250 μg/mouse of RMP1-14 (ix) 1.5 mg/kg of Compound 2 Q2D; (x) 1.5 mg/kg of Compound 2 Q2D and 250 μg/mouse of RMP1-14; (xi) 1.5 mg/kg of Compound 2 Q3D; or (xii) 1.5 mg/kg of Compound 2 Q3D and 250 μg/mouse of RMP1-14.
The in vivo effect of combining 2-(4-((2S,5R)-4-(bis(4-fluorophenyl)methyl)-2,5-dimethylpiperazin-1-yl)-1H-[1,2,4]triazolo[3,4-b]purin-1-yl)-N,N-dimethylethane-1-amine (i.e., Compound 3) plus anti-PD-1 (RMP1-14, Bio X Cell) was assessed in the MC38 (CRL-1642, ATCC, Manassas, VA) syngeneic tumor model in 6 to 8 weeks old C57Bl/6 mice (Jackson laboratories). Compound 3 was suspended in 5% N,N-dimethylacetamide (DMAC)+50 mM Citrate buffer in 0.5% methyl cellulose for oral administration and RMP1-14 was suspended in saline for intraperitoneal administration. Briefly, the left flank of the mice was shaved the day prior to subcutaneous inoculation with 2×10^6 MC38 cells suspended in PBS. On day 7, tumor dimensions were measured by Vernier calipers, and volume estimated by the formula Volume=[L (long dimension)×W^2 (short dimension)]/2. Mice were randomized into 6 groups of 10 mice of approximate mean volume (˜200 mm^3). Tumors were measured 3 times per week for the duration of the study. Starting day 7, mice were dosed with (i) vehicle; (ii) 250 μg/mouse of RMP1-14 (Anti-PD-1); (iii) 10 mg/kg of Compound 3 QD; (iv) 10 mg/kg of Compound 3 QD and 250 μg/mouse of RMP1-14; (v) 30 mg/kg of Compound 3 QD; or (vi) 30 mg/kg of Compound 3 QD and 250 μg/mouse of RMP1-14.

DGKζ, sequence (Q13574 whole entry): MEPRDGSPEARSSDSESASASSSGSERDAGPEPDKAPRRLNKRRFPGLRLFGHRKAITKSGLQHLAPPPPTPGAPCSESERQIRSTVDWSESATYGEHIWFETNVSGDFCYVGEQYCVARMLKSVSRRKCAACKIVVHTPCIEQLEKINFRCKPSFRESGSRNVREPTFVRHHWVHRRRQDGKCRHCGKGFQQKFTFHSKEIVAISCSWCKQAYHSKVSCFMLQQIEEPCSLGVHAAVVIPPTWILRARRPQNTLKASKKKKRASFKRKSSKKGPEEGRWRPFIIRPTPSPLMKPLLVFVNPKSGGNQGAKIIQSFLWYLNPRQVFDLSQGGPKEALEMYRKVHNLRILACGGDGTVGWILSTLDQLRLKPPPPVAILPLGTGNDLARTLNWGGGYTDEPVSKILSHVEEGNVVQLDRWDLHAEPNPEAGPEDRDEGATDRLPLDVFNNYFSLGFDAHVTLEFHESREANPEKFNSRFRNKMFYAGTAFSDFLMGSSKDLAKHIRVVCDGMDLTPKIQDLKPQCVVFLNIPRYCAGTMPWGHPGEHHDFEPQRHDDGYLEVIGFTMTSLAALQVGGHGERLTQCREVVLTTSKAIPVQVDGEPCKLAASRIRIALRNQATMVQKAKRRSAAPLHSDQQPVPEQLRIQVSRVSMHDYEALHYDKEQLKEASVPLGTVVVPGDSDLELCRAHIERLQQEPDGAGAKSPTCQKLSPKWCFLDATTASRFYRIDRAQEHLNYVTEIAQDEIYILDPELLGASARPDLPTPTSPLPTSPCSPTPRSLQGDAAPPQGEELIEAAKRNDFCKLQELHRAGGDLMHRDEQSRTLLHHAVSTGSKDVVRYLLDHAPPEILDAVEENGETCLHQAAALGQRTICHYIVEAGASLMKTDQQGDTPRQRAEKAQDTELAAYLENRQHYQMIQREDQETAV

Row | IC50 (DGKζ) [nM] | IC50 (DGKα) [nM] | Compound | TGI, combined with anti-PD-1 mAb, vs anti-PD-1 control group ([1]; 30 mg/kg Compound 3 QD and 250 μg/mouse RMP1-14) | TGI vs vehicle control group ([1]; all groups treated with Compound 3: 10 or 30 mg/kg QD, alone or with 250 μg/mouse RMP1-14)
1 | ≤ 20 | ≤ 20 | Cc1nc2c(N3C[C@@H](C)N(C(c4ccc(Cl)cc4)[C@@H]4CC4(F)F)C[C@@H]3C)nc3nncn3c2n1C[C@@H]1CCCO1 (single isomer, unassigned) [Example 9] |  | 
2 | ≤ 20 | ≤ 20 | CC(C)CC(c1ccc(Cl)cc1)N1C[C@H](C)N(c2nc3nncn3c3c2ncn3C[C@@H]2CCCO2)C[C@H]1C (single isomer, unassigned) [Example 10] |  | 
3 | ≤ 20 | ≤ 20 | Cc1nc2c(N3C[C@@H](C)N(C(c4ccc(C(F)(F)F)cc4)C4CC(F)(F)C4)C[C@@H]3C)cc3nncn3c2n1C[C@@H]1CCCO1 (single isomer, unassigned) [Example 17] |  | 
4 | ≤ 20 | ≤ 20 | C[C@@H]1CN(c2nc3nncn3c3c2ncn3CCN(C)C)[C@@H](C)CN1C(c1ccc(F)cc1)c1ccc(F)cc1 [Example 24, 2-(4-((2S,5R)-4-(Bis(4-fluorophenyl)methyl)-2,5-dimethylpiperazin-1-yl)-1H-[1,2,4]triazolo[3,4-b]purin-1-yl)-N,N-dimethylethane-1-amine] | statistically significant; also recorded: significant TGI | Tumor growth inhibition of Compound 3 was observed for all groups; also recorded: statistically significant TGI
